Tests used:
Type in all cases: in vivo
C57BL/6 mice = test: Mouse carbon tetrachloride (CCl4)-induced liver fibrosis model; conditions: compared to the untreated group
Procedure: Female C57BL/6 mice (Harlan, 20-25 g) housed 4/cage are given free access to food and water and allowed to acclimate for at least 7 days prior to test initiation. After the habituation phase, mice receive CCl4 (1.0 ml/kg body weight) diluted in corn oil vehicle (100 μL volume) via i.p. injection twice a week for 8 weeks. (Higazi, A. A. et al., Clin Exp Immunol. 2008 April; 152(1):163-73. Epub 2008 Feb. 14.). Control mice receive an equivalent volume of corn oil vehicle only. Test compound or vehicle is delivered po, ip or sc daily. […] Liver tissue homogenates are analyzed for collagen levels using Sircol (Biocolor Ltd, UK). Fixed Liver tissue is stained using hematoxylin and eosin (H&E) and trichrome and liver fibrosis is determined by quantitative, computer-assisted densitometry of collagen in liver tissue sections using light microscopy. Plasma and liver tissue lysates are also analyzed for concentrations of inflammatory, pro-fibrotic and tissue injury biomarkers including transforming growth factor β1, hyaluronic acid, tissue inhibitor of metalloproteinase-1, matrix matelloproteinase-7, connective tissue growth factor and lactate dehydrogenase activity, using commercially available ELISA. The resulting data are plotted using Graphpad prism and statistical differences between groups determined.

BALB/c mice = test: Mouse dermal vascular leak assay; conditions: 30 mg/kg oral gavage, three hours before dye; intradermal LPA 30 μg
Procedure: Female BALB/c mice (Harlan) weighing 20-25 grams were given free access to standard mouse chow and water and were allowed to acclimate for two weeks prior to study initiation. Compound 1 was prepared in water vehicle at a concentration of 3 mg/ml and delivered by oral gavage at a volume of 10 ml/kg to yield a dose of 30 mg/kg. Three hours following dose, mice were placed into a restraining device and given Evan's blue dye intravenously by tail vein injection (0.2 ml of a 0.5% solution). Mice were then anesthetized using 3% isoflurane anaesthesia to allow for intradermal injection of LPA (30 μg in 20 μl 0.1% fatty acid free BSA). Thirty minutes after LPA injection mice were sacrificed by CO2 inhalation and the skin removed from the challenge site and placed into 2 ml formamide for overnight extraction of Evan's blue dye.
Following extraction, a 150 μl aliquot of formamide for each tissue sample was placed into a 96 well plate and read at 610 nm using a photospectometer. The resulting data (OD units) were plotted using GraphPad Prizm. In this experiment compound 1 reduced LPA-induced Evan's blue dye leak into the skin.

C57B1/6 mice = test: Bleomycin-induced lung fibrosis model in mice; conditions: for total lung collagen: chronic setting (14 day bleomycin model)
Text: Female C57B1/6 mice (Harlan, 25-30 g) are housed 4 per cage, given free access to food and water and allowed to acclimate for at least 7 days prior to test initiation. After the habituation phase, mice are lightly anesthetized with isoflurane (5% in 100% O2) and administered with bleomycin sulfate (0.01-5 U/kg, Henry Schein) via intratracheal instillation (Cuzzocrea S et al. Am J Physiol Lung Cell Mol Physiol. 2007 May; 292(5):L1095-104. Epub 2007 Jan. 12.). Mice are returned to their cages and monitored daily for the duration of the experiment. Test compound or vehicle is delivered po, ip or sc daily. The route and frequency of dosing is based on previously determined pharmacokinetic properties. All animals are sacrificed using inhaled isoflurane 3, 7, 14, 21 or 28 days after bleomycin instillation. Following sacrifice, mice are intubated with a 20 gauge angiocatheter attached to a 1 ml syringe. Lungs are lavaged with saline to obtain bronchoalveolar lavage fluid (BALF) and then removed and fixed in 10% neutral buffered formalin for subsequent histopathological analysis. BALF is centrifuged for 10 min at 800×g to pellet the cells and the cell supernatant removed and frozen at −80° C. for subsequent protein analysis using the DC protein assay kit (Biorad, Hercules, Calif.) and soluble collagen analysis using Sircol (Biocolor Ltd, UK). BALF is analyzed for concentrations of inflammatory, pro-fibrotic and tissue injury biomarkers including transforming growth factor β1, hyaluronic acid, tissue inhibitor of metalloproteinase-1, matrix matelloproteinase-7, connective tissue growth factor and lactate dehydrogenase activity, using commercially available ELISA. The cell pellet is re-suspended in PBS. Total cell counts are then obtained using a Hemavet hematology system (Drew Scientific, Wayne, Pa.) and differential cells counts are determined using Shandon cytospin (Thermo Scientific, Waltham, Mass.). Lung tissue is stained using hematoxylin and eosin (H&E) and trichrome and lung fibrosis is determined by semiquantitative histopathological scoring (Ashcroft T. et al. J. Clin. Path. 1988; 41; 4, 467-470) using light microscopy (10× magnification) and quantitative, computer-assisted densitometry of collagen in lung tissue sections using light microscopy. The data are plotted using Graphpad prism and statistical differences between groups determined.

Cc1noc(-c2ccc(-c3ccc(C4(C(=O)O)CC4)cc3)cc2)c1NC(=O)O[C@H](C)c1ccccc1 [Compound 1, 1-{4′-[3-Methyl-4-((R)-1-phenyl-ethoxycarbonylamino)-isoxazol-5-yl]-biphenyl-4-yl}-cyclopropanecarboxylic acid]
collagen deposition in the liver (C57BL/6 mice): significantly reduced | liver weight increase (C57BL/6 mice): significantly reduced | LPA-induced Evan's blue dye leak into the skin (BALB/c mice): reduced | BALF MMP-7 (C57B1/6 mice; 7-day bleomycin model): reduced | BALF TGFβ1 (C57B1/6 mice; 7-day bleomycin model): reduced | BALF collagen (C57B1/6 mice; 7-day bleomycin model): reduced | BALF hyaluronan (C57B1/6 mice; 7-day bleomycin model): reduced | BALF inflammatory cell influx (C57B1/6 mice; 7-day bleomycin model): reduced | BALF protein (C57B1/6 mice; 7-day bleomycin model): reduced | collagen concentration in BALF (C57B1/6 mice; acute setting (3 day)): significantly reduced | total protein concentration in BALF (C57B1/6 mice; acute setting (3 day)): significantly reduced | total lung collagen (C57B1/6 mice; dosed prophylactically (day 0-day 14)): decreased | total lung collagen (C57B1/6 mice; dosed therapeutically (day 3-day 14)): decreased

— patent US8273780B2, “Polycyclic antagonists of lysophosphatidic acid receptors” (Amira Pharmaceuticals, Inc., priority 2009, dated 2012)
